Patent US9326539B2, “Compositions comprising dietary fat complexers and methods for their use” (Soho Flordis International Pty. Ltd., priority 2002, dated 2016)

Experiments:
[1] = molecular target: T1, porcine pancreatic lipase (Sus scrofa, UniProt P00591); assay: lipolytic activity of porcine pancreatic lipase on purified olive oil premixed with α-cyclodextrin; assay type: biochemical
T1 sequence (P00591 1-450): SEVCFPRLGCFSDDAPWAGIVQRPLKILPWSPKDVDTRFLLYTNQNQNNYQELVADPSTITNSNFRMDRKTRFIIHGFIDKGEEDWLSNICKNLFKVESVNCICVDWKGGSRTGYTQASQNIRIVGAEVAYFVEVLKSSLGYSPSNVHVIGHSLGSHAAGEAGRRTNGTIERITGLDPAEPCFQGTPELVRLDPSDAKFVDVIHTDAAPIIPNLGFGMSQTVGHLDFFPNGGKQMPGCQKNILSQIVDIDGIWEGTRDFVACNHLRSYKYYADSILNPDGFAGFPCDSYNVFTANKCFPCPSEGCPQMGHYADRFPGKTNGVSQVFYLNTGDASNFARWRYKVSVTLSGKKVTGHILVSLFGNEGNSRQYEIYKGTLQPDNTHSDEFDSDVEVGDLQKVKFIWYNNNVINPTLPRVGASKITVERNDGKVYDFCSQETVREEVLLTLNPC
Text: If this were the case it would be difficult to imagine being able to feed enough of the α-cyclodextrin to an animal in order to complex sufficient triglycerides to make a significant difference in body weight as triglycerides and α-cyclodextrin have similar molecular weights. However, from the data disclosed herein wherein e.g., a diet comprising 4% α-cyclodextrin and 40% fat inhibits weight gain and reduces body fat mass, as the molecular weights are very similar, we have calculated that one α-cyclodextrin molecule can complex approximately nine molecules of triglyceride, the equivalent of 27 free fatty acids. Thus we can convert this directly to I gram of α-cyclodextrin complexes approximately 9 grams of triglyceride. […] As these particles are formed in the midst of chyme, a very complex “soup”, the particles may be analogous to lipoprotein particles of the blood stream.

[2] = two additional volunteers, about 2 g α-cyclodextrin per meal: cholesterol, LDL, cholesterol/HDL, triglycerides; assay type: in vivo, human
Procedure: α-cyclodextrin was also added to the diet of two additional volunteers. The α-cyclodextrin was added in a proportion such that each meal comprised about 2 g of α-cyclodextrin. Table 3 sets forth the effects of the α-cyclodextrin on reducing the levels of cholesterol, LDL, cholesterol/HDL ratio and serum triglycerides. It is of note that both of these volunteers, as well as the initial volunteer, had been and still were taking one of the statin pharmaceuticals for lowering their blood serum cholesterol. All three volunteers were taking different statins. In addition volunteer one was taking 3 g/d niacin which they reduced by 50% in the first two weeks of the study because of the unpleasant side effects of this medication.

insulin and leptin = assay: two additional volunteers: body weight, insulin and leptin levels (radioimmune assays); assay type: in vivo, human
Text: Blood samples were taken from the two additional subjects in Example 3 at various timepoints and assayed for insulin levels and leptin levels by the method of Linco Research (St. Charles, Mo.) using human insulin and leptin radioimmune assays.

[3] = dog with chronic diarrhea fed α-cyclodextrin with dry food; assay type: in vivo; details: 2.5 g α-cyclodextrin with two cups dry food twice a day for two and one-half weeks, α-cyclodextrin:fat about 1:9
Procedure: An eighteen month old, neutered male dog of unknown parentage having chronic diarrhea was de-wormed twice and placed on hypoallergenic food in an effort to control the diarrhea. However, the chronic diarrhea was not alleviated and the dog stopped eating for a day or two on two or three separate occasions.
The dog was then treated with α-cyclodextrin as follows: The dog was placed on a diet comprising a teaspoon (2.5 g) of α-cyclodextrin mixed with two cups dry food twice a day for two and one-half weeks. Based on the fat content in the food, the ratio of α-cyclodextrin to fat was about 1:9. The dog's chronic diarrhea was eliminated during this period except for an acute episode of loose stools after a day of swimming in a river but the stool has been formed ever since.
The dog very quickly lost his appetite, self restricted his food intake by about one-half and began eating grass, grass helps to bind his stool. The diarrhea returned.

[4] = Wistar rat feeding study: plasma glucose, cholesterol, triglyceride, insulin resistance; assay type: in vivo, Wistar rats
Text: The rats were housed as pairs for five weeks prior to being placed in individual metabolic cages for the sixth week of the study. All of the rats' feces were collected during the final three days of the study. At the end of the sixth week of the study period the rats were sacrificed by decapitation after a brief exposure to carbon dioxide gas. Trunk blood and the livers were collected from each animal. The rest of the body was eviscerated and all visible fat from the internal cavity was collected and weighed. The carcass was frozen for body composition analysis at a later date.
The plasma glucose, cholesterol and triglyceride concentrations were measured on all of the sacrificed animals using standard clinical laboratory techniques as may be found in Tietz Textbook of Clinical Chemistry, second edition. Burtis C A and Ashwood E R eds., W.B. Saunders Company A Division of Harcourt Brace & Company, 1994, Philadelphia incorporated herein by reference. (FIG. 5). On average the α-cyclodextrin appeared to have decreased the plasma total cholesterol levels by about 10%. This decrease was not statistically significant over this short study period; we expect that with longer feeding period, cholesterol levels will continue to decline. […] LDL cholesterol levels on all of the animals were too low to measure reliably since in rats the majority of the cholesterol is carried in the HDL-cholesterol fraction, and very little is carried in the LDL-cholesterol fraction.
Increased insulin resistance, elevated blood triglycerides and reduced HDL cholesterol levels are all the risk factors of Syndrome X. Insulin/glucose ratios as well as triglyceride/HDL ratios were calculated to provide indications about insulin resistance and risk of Syndrome X. (Szejtli J. Mater. Chem. 1997; 7:575-587 incorporated herein by reference). […] The reduction in triglyceride/HDL cholesterol ratios by α-cyclodextrin indicated a significant decrease in the risk for Syndrome X.

[5] = volunteer one, 2.5 months, on statin and niacin
[6] = volunteer two, 6 months, on statin

**Q.** For `OC[C@H]1O[C@@H]2O[C@H]3[C@H](O)[C@@H](O)[C@@H](O[C@H]4[C@H](O)[C@@H](O)[C@@H](O[C@H]5[C@H](O)[C@@H](O)[C@@H](O[C@H]6[C@H](O)[C@@H](O)[C@@H](O[C@H]7[C@H](O)[C@@H](O)[C@@H](O[C@H]1[C@H](O)[C@H]2O)O[C@@H]7CO)O[C@@H]6CO)O[C@@H]5CO)O[C@@H]4CO)O[C@@H]3CO` [α-cyclodextrin], which “lipolytic activity of porcine pancreatic lipase” value [1] is on record?
**A.** Its value is “significantly reduced”.

**Q.** And the “Cholesterol (change)” value [2, 5]?
**A.** Its value is −18.5%.

**Q.** What about the “Cholesterol/HDL (change)” value [2, 5] of the same molecule?
**A.** The value was −16.1%.

**Q.** And the “LDL (change)” value [2, 5]?
**A.** Its value is −25.6%.

**Q.** And the “TG (change)” value [2, 5]?
**A.** The value was −22.2%.

**Q.** And the “Cholesterol (change)” value [2, 6]?
**A.** Its value is −10.2%.

**Q.** And the “Cholesterol/HDL (change)” value [2, 6]?
**A.** The value was −8.8%.

**Q.** What about the “LDL (change)” value [2, 6] of the same molecule?
**A.** Its value is −15.0.

**Q.** And the “TG (change)” value [2, 6]?
**A.** The value was −37.5%.

**Q.** What about the Leptin (insulin and leptin; Subject 1, 55 days on diet, day 0: 3.6) of the same molecule?
**A.** Its Leptin is 2.9 ng/mL.

**Q.** What about the Insulin (insulin and leptin; Subject 1, 55 days on diet, day 0: 14) of the same molecule?
**A.** Its Insulin is 13 uU/ml.

**Q.** What about the Body weight (insulin and leptin; Subject 1, 55 days on diet, day 0: 89.09) of the same molecule?
**A.** Its Body weight is 85.45 kg.

**Q.** What about the Body weight (insulin and leptin; Subject 1, 55 days on diet, day 0: 196) of the same molecule?
**A.** The Body weight was 188 lb.

**Q.** And the Leptin (insulin and leptin; Subject 1, 112 days on diet, day 0: 3.6)?
**A.** Its Leptin is 1.6 ng/mL.

**Q.** What about the Insulin (insulin and leptin; Subject 1, 112 days on diet, day 0: 14) of the same molecule?
**A.** Its Insulin is 8 uU/ml.

**Q.** What about the Body weight (insulin and leptin; Subject 1, 112 days on diet, day 0: 89.09) of the same molecule?
**A.** The Body weight was 81.82 kg.

**Q.** What about the Body weight (insulin and leptin; Subject 1, 112 days on diet, day 0: 196) of the same molecule?
**A.** The Body weight was 180 lb.

**Q.** What about the “Body weight % decrease” value (insulin and leptin; Subject 1, day 0 to day 112) of the same molecule?
**A.** Its value is 5.0%.

**Q.** What about the Insulin % decrease (insulin and leptin; Subject 1, day 0 to day 112) of the same molecule?
**A.** The Insulin % decrease was 42.9%.

**Q.** And the Leptin % decrease (insulin and leptin; Subject 1, day 0 to day 112)?
**A.** The Leptin % decrease was 55.6%.

**Q.** What about the Leptin (insulin and leptin; Subject 2, 28 days on diet, day 0: 6.1) of the same molecule?
**A.** Its Leptin is 6.0 ng/mL.

**Q.** What about the Insulin (insulin and leptin; Subject 2, 28 days on diet, day 0: 26) of the same molecule?
**A.** Its Insulin is 28 uU/ml.

**Q.** And the Body weight (insulin and leptin; Subject 2, 28 days on diet, day 0: 105.45)?
**A.** The Body weight was 104.55 kg.

**Q.** And the Body weight (insulin and leptin; Subject 2, 28 days on diet, day 0: 232)?
**A.** Its Body weight is 230 lb.

**Q.** What about the Leptin (insulin and leptin; Subject 2, 62 days on diet, day 0: 6.1) of the same molecule?
**A.** Its Leptin is 3.9 ng/mL.

**Q.** And the Insulin (insulin and leptin; Subject 2, 62 days on diet, day 0: 26)?
**A.** Its Insulin is 16 uU/ml.

**Q.** And the Body weight (insulin and leptin; Subject 2, 62 days on diet, day 0: 105.45)?
**A.** Its Body weight is 100.23 kg.

**Q.** What about the Body weight (insulin and leptin; Subject 2, 62 days on diet, day 0: 232) of the same molecule?
**A.** The Body weight was 220.5 lb.

**Q.** And the “Body weight % decrease” value (insulin and leptin; Subject 2, day 0 to day 62)?
**A.** The value was 5.0%.

**Q.** What about the Insulin % decrease (insulin and leptin; Subject 2, day 0 to day 62) of the same molecule?
**A.** The Insulin % decrease was 38.5%.

**Q.** What about the Leptin % decrease (insulin and leptin; Subject 2, day 0 to day 62) of the same molecule?
**A.** Its Leptin % decrease is 36%.

**Q.** What about the chronic diarrhea [3] of the same molecule?
**A.** The chronic diarrhea was “eliminated”.

**Q.** What about the triglyceride/HDL cholesterol ratios ([4]; 6 week study) of the same molecule?
**A.** The triglyceride/HDL cholesterol ratios was “reduction”.

**Q.** What about the “decrease of HDL cholesterol” value ([4]; at sacrifice) of the same molecule?
**A.** The value was 6-8%.

**Q.** What about the plasma glucose levels ([4]; at sacrifice) of the same molecule?
**A.** The plasma glucose levels was “not affected significantly”.

**Q.** And the “reduction of plasma triglyceride levels” value ([4]; at sacrifice, p<0.05)?
**A.** Its value is “about 30%”.

**Q.** What about the “decrease of plasma total cholesterol” value ([4]; on average, at sacrifice, not statistically significant) of the same molecule?
**A.** The value was “about 10%”.
